Tests used:
Format in all cases: functional
Klebsiella pneumoniae [1] = experiment: Antimicrobial activity against ESBL-positive Klebsiella pneumoniae 71697 harboring porin OmpK36V mutant gene by Etest
Klebsiella pneumoniae [2] = experiment: Antimicrobial activity against ESBL-positive Klebsiella pneumoniae 69928 harboring porin OmpK36V mutant gene by Etest
Klebsiella pneumoniae [3] = experiment: Antimicrobial activity against ESBL-positive Klebsiella pneumoniae 69036 harboring porin OmpK36V mutant gene by Etest
Klebsiella pneumoniae [4] = experiment: Antimicrobial activity against ESBL-positive Klebsiella pneumoniae 50748 harboring porin OmpK36 gene by Etest
Klebsiella pneumoniae [5] = experiment: Antimicrobial activity against ESBL-positive Klebsiella pneumoniae 18260 harboring pSHA2-encoded porin OmpK36 gene by Etest
Klebsiella pneumoniae [6] = experiment: Antimicrobial activity against ESBL-positive Klebsiella pneumoniae 17829 harboring pSHA2-encoded porin OmpK36 gene by Etest
Klebsiella pneumoniae [7] = experiment: Antimicrobial activity against ESBL-positive Klebsiella pneumoniae 19039 harboring porin OmpK36V mutant gene by Etest
Klebsiella pneumoniae [8] = experiment: Antimicrobial activity against ESBL-positive Klebsiella pneumoniae 18918 harboring porin OmpK36V mutant gene by Etest
Klebsiella pneumoniae [9] = experiment: Antimicrobial activity against ESBL-positive Klebsiella pneumoniae 18567 harboring porin OmpK36V mutant gene by Etest
Klebsiella pneumoniae [10] = experiment: Antimicrobial activity against ESBL-positive Klebsiella pneumoniae 18260 by Etest
Klebsiella pneumoniae [11] = experiment: Antimicrobial activity against ESBL-positive Klebsiella pneumoniae 17834 harboring porin OmpK36V mutant gene by Etest
Klebsiella pneumoniae [12] = experiment: Antimicrobial activity against ESBL-positive Klebsiella pneumoniae 17830 harboring porin OmpK36V mutant gene by Etest
Klebsiella pneumoniae [13] = experiment: Antimicrobial activity against ESBL-positive Klebsiella pneumoniae 17829 by Etest
Klebsiella pneumoniae [14] = experiment: Antimicrobial activity against ESBL-positive Klebsiella pneumoniae 17049 harboring porin OmpK36V mutant gene by Etest
Klebsiella pneumoniae [15] = experiment: Antimicrobial activity against ESBL-positive Klebsiella pneumoniae 11932 harboring porin OmpK36 gene by Etest
Klebsiella pneumoniae [16] = experiment: Antimicrobial activity against ESBL-positive Klebsiella pneumoniae 16830 harboring porin OmpK36 gene by Etest
Klebsiella pneumoniae [17] = experiment: Antimicrobial activity against ESBL-positive Klebsiella pneumoniae 25008 by Etest
Klebsiella pneumoniae [18] = experiment: Antimicrobial activity against ESBL-positive Klebsiella pneumoniae 26077 harboring porin OmpK36V mutant gene by Etest
Klebsiella pneumoniae [19] = experiment: Antimicrobial activity against ESBL-positive Klebsiella pneumoniae 287942 harboring porin OmpK36 gene by Etest
Klebsiella pneumoniae [20] = experiment: Antimicrobial activity against ESBL-positive Klebsiella pneumoniae 29459 harboring porin OmpK36 gene by Etest
Klebsiella pneumoniae [21] = experiment: Antimicrobial activity against ESBL-positive Klebsiella pneumoniae 29830 harboring porin OmpK36V mutant gene by Etest
Klebsiella pneumoniae [22] = experiment: Antimicrobial activity against ESBL-negative Klebsiella pneumoniae 299332 harboring porin OmpK36 gene by Etest
Klebsiella pneumoniae [23] = experiment: Antimicrobial activity against ESBL-negative Klebsiella pneumoniae 30018 harboring porin OmpK35 gene by Etest
Klebsiella pneumoniae [24] = experiment: Antimicrobial activity against ESBL-positive Klebsiella pneumoniae 6267 harboring porin OmpK36V mutant gene by Etest
Klebsiella pneumoniae [25] = experiment: Antimicrobial activity against ESBL-positive Klebsiella pneumoniae 16855 harboring porin OmpK36 and OmpK35 genes by Etest
Klebsiella pneumoniae [26] = experiment: Antimicrobial activity against ESBL-positive Klebsiella pneumoniae 31750 harboring porin OmpK36 gene by Etest
Klebsiella pneumoniae [27] = experiment: Antimicrobial activity against ESBL-positive Klebsiella pneumoniae 71697 harboring porin OmpK36V mutant gene by Etest in presence of Tazobactam
Klebsiella pneumoniae [28] = experiment: Antimicrobial activity against ESBL-positive Klebsiella pneumoniae 69928 harboring porin OmpK36V mutant gene by Etest in presence of Tazobactam
Klebsiella pneumoniae [29] = experiment: Antimicrobial activity against ESBL-positive Klebsiella pneumoniae 69036 harboring porin OmpK36V mutant gene by Etest in presence of Tazobactam
Klebsiella pneumoniae [30] = experiment: Antimicrobial activity against ESBL-positive Klebsiella pneumoniae 50748 harboring porin OmpK36 gene by Etest in presence of Tazobactam
Klebsiella pneumoniae [31] = experiment: Antimicrobial activity against ESBL-positive Klebsiella pneumoniae 19039 harboring porin OmpK36V mutant gene by Etest in presence of Tazobactam
Klebsiella pneumoniae [32] = experiment: Antimicrobial activity against ESBL-positive Klebsiella pneumoniae 18918 harboring porin OmpK36V mutant gene by Etest in presence of Tazobactam
Klebsiella pneumoniae [33] = experiment: Antimicrobial activity against ESBL-positive Klebsiella pneumoniae 18567 harboring porin OmpK36V mutant gene by Etest in presence of Tazobactam
Klebsiella pneumoniae [34] = experiment: Antimicrobial activity against ESBL-positive Klebsiella pneumoniae 18260 by Etest in presence of Tazobactam
Klebsiella pneumoniae [35] = experiment: Antimicrobial activity against ESBL-positive Klebsiella pneumoniae 17834 harboring porin OmpK36V mutant gene by Etest in presence of Tazobactam
Klebsiella pneumoniae [36] = experiment: Antimicrobial activity against ESBL-positive Klebsiella pneumoniae 17830 harboring porin OmpK36V mutant gene by Etest in presence of Tazobactam
Klebsiella pneumoniae [37] = experiment: Antimicrobial activity against ESBL-positive Klebsiella pneumoniae 17829 by Etest in presence of Tazobactam
Klebsiella pneumoniae [38] = experiment: Antimicrobial activity against ESBL-positive Klebsiella pneumoniae 17049 harboring porin OmpK36V mutant gene by Etest in presence of Tazobactam
Klebsiella pneumoniae [39] = experiment: Antimicrobial activity against ESBL-positive Klebsiella pneumoniae 16855 harboring porin OmpK36 and OmpK35 genes by Etest in presence of Tazobactam
Klebsiella pneumoniae [40] = experiment: Antimicrobial activity against ESBL-positive Klebsiella pneumoniae 6267 harboring porin OmpK36V mutant gene by Etest in presence of Tazobactam
Klebsiella pneumoniae [41] = experiment: Antimicrobial activity against ESBL-positive Klebsiella pneumoniae 11932 harboring porin OmpK36 gene by Etest in presence of Tazobactam
Klebsiella pneumoniae [42] = experiment: Antimicrobial activity against ESBL-positive Klebsiella pneumoniae 16830 harboring porin OmpK36 gene by Etest in presence of Tazobactam
Klebsiella pneumoniae [43] = experiment: Antimicrobial activity against ESBL-positive Klebsiella pneumoniae 25008 by Etest in presence of Tazobactam
Klebsiella pneumoniae [44] = experiment: Antimicrobial activity against ESBL-positive Klebsiella pneumoniae 26077 harboring porin OmpK36V mutant gene by Etest in presence of Tazobactam
Klebsiella pneumoniae [45] = experiment: Antimicrobial activity against ESBL-positive Klebsiella pneumoniae 287942 harboring porin OmpK36 gene by Etest in presence of Tazobactam
Klebsiella pneumoniae [46] = experiment: Antimicrobial activity against ESBL-positive Klebsiella pneumoniae 29459 harboring porin OmpK36 gene by Etest in presence of Tazobactam
Klebsiella pneumoniae [47] = experiment: Antimicrobial activity against ESBL-positive Klebsiella pneumoniae 29830 harboring porin OmpK36V mutant gene by Etest in presence of Tazobactam
Klebsiella pneumoniae [48] = experiment: Antimicrobial activity against ESBL-negative Klebsiella pneumoniae 299332 harboring porin OmpK36 gene by Etest in presence of Tazobactam
Klebsiella pneumoniae [49] = experiment: Antimicrobial activity against ESBL-negative Klebsiella pneumoniae 30018 harboring porin OmpK35 gene by Etest in presence of Tazobactam
Klebsiella pneumoniae [50] = experiment: Antimicrobial activity against ESBL-positive Klebsiella pneumoniae 31750 harboring porin OmpK36 gene by Etest in presence of Tazobactam

Measured: MIC

C[C@H]1[C@H](NC(=O)/C(=N\OC(C)(C)C(=O)O)c2csc(N)n2)C(=O)N1S(=O)(=O)O [AZTREONAM]
0.25 µg/mL: Klebsiella pneumoniae [22]
0.064 µg/mL: Klebsiella pneumoniae [23]
> 256 µg/mL: Klebsiella pneumoniae [1] | Klebsiella pneumoniae [2] | Klebsiella pneumoniae [3] | Klebsiella pneumoniae [4] | Klebsiella pneumoniae [5] | Klebsiella pneumoniae [6] | Klebsiella pneumoniae [7] | Klebsiella pneumoniae [8] | Klebsiella pneumoniae [9] | Klebsiella pneumoniae [10] | Klebsiella pneumoniae [11] | Klebsiella pneumoniae [12] | Klebsiella pneumoniae [13] | Klebsiella pneumoniae [14] | Klebsiella pneumoniae [15] | Klebsiella pneumoniae [16] | Klebsiella pneumoniae [17] | Klebsiella pneumoniae [18] | Klebsiella pneumoniae [19] | Klebsiella pneumoniae [20] | Klebsiella pneumoniae [21]

CO/N=C(\C(=O)N[C@@H]1C(=O)N2C(C(=O)[O-])=C(C[N+]3(C)CCCC3)CS[C@H]12)c1csc(N)n1 [CEFEPIME]
48 µg/mL: Klebsiella pneumoniae [4] | Klebsiella pneumoniae [15]
96 µg/mL: Klebsiella pneumoniae [20]
0.047 µg/mL: Klebsiella pneumoniae [23]
> 256 µg/mL: Klebsiella pneumoniae [1] | Klebsiella pneumoniae [2] | Klebsiella pneumoniae [3] | Klebsiella pneumoniae [7] | Klebsiella pneumoniae [8] | Klebsiella pneumoniae [9] | Klebsiella pneumoniae [10] | Klebsiella pneumoniae [11] | Klebsiella pneumoniae [12] | Klebsiella pneumoniae [13] | Klebsiella pneumoniae [14] | Klebsiella pneumoniae [24] | Klebsiella pneumoniae [17] | Klebsiella pneumoniae [18] | Klebsiella pneumoniae [21]

CO/N=C(\C(=O)N[C@@H]1C(=O)N2C(C(=O)O)=C(COC(C)=O)CS[C@H]12)c1csc(N)n1 [CEFOTAXIME]
> 32 µg/mL: Klebsiella pneumoniae [1] | Klebsiella pneumoniae [2] | Klebsiella pneumoniae [3] | Klebsiella pneumoniae [4] | Klebsiella pneumoniae [7] | Klebsiella pneumoniae [8] | Klebsiella pneumoniae [9] | Klebsiella pneumoniae [10] | Klebsiella pneumoniae [11] | Klebsiella pneumoniae [12] | Klebsiella pneumoniae [13] | Klebsiella pneumoniae [14] | Klebsiella pneumoniae [25] | Klebsiella pneumoniae [24] | Klebsiella pneumoniae [15] | Klebsiella pneumoniae [16] | Klebsiella pneumoniae [17] | Klebsiella pneumoniae [18] | Klebsiella pneumoniae [19] | Klebsiella pneumoniae [20] | Klebsiella pneumoniae [21] | Klebsiella pneumoniae [26]
0.125 µg/mL: Klebsiella pneumoniae [22]
0.094 µg/mL: Klebsiella pneumoniae [23]

CO[C@@]1(NC(=O)Cc2cccs2)C(=O)N2C(C(=O)O)=C(COC(N)=O)CS[C@@H]21 [CEFOXITIN]
6 µg/mL: Klebsiella pneumoniae [4] | Klebsiella pneumoniae [15] | Klebsiella pneumoniae [20]
96 µg/mL: Klebsiella pneumoniae [11] | Klebsiella pneumoniae [12]
4 µg/mL: Klebsiella pneumoniae [19] | Klebsiella pneumoniae [22]
> 256 µg/mL: Klebsiella pneumoniae [7] | Klebsiella pneumoniae [8] | Klebsiella pneumoniae [9] | Klebsiella pneumoniae [10] | Klebsiella pneumoniae [13] | Klebsiella pneumoniae [14]
32 µg/mL: Klebsiella pneumoniae [24]
128 µg/mL: Klebsiella pneumoniae [1] | Klebsiella pneumoniae [3] | Klebsiella pneumoniae [18] | Klebsiella pneumoniae [21]
48 µg/mL: Klebsiella pneumoniae [2]
24 µg/mL: Klebsiella pneumoniae [25]
256 µg/mL: Klebsiella pneumoniae [5] | Klebsiella pneumoniae [6]
3 µg/mL: Klebsiella pneumoniae [16] | Klebsiella pneumoniae [23] | Klebsiella pneumoniae [26]
64 µg/mL: Klebsiella pneumoniae [17]

CC(C)(O/N=C(\C(=O)N[C@@H]1C(=O)N2C(C(=O)[O-])=C(C[n+]3ccccc3)CS[C@H]12)c1csc(N)n1)C(=O)O [CEFTAZIDIME]
> 32 µg/mL: Klebsiella pneumoniae [1] | Klebsiella pneumoniae [2] | Klebsiella pneumoniae [3] | Klebsiella pneumoniae [4] | Klebsiella pneumoniae [5] | Klebsiella pneumoniae [6] | Klebsiella pneumoniae [7] | Klebsiella pneumoniae [8] | Klebsiella pneumoniae [9] | Klebsiella pneumoniae [10] | Klebsiella pneumoniae [11] | Klebsiella pneumoniae [12] | Klebsiella pneumoniae [13] | Klebsiella pneumoniae [14] | Klebsiella pneumoniae [25] | Klebsiella pneumoniae [24] | Klebsiella pneumoniae [15] | Klebsiella pneumoniae [16] | Klebsiella pneumoniae [17] | Klebsiella pneumoniae [18] | Klebsiella pneumoniae [19] | Klebsiella pneumoniae [20] | Klebsiella pneumoniae [21] | Klebsiella pneumoniae [26]
< 0.5 µg/mL: Klebsiella pneumoniae [22] | Klebsiella pneumoniae [23]

C[C@@H](O)[C@H]1C(=O)N2C(C(=O)O)=C(SCCNC=N)C[C@H]12 [IMIPENEM ANHYDROUS]
0.19 µg/mL: Klebsiella pneumoniae [1] | Klebsiella pneumoniae [3] | Klebsiella pneumoniae [7] | Klebsiella pneumoniae [8] | Klebsiella pneumoniae [9] | Klebsiella pneumoniae [11] | Klebsiella pneumoniae [12] | Klebsiella pneumoniae [15] | Klebsiella pneumoniae [18] | Klebsiella pneumoniae [19] | Klebsiella pneumoniae [20] | Klebsiella pneumoniae [21] | Klebsiella pneumoniae [26]
0.125 µg/mL: Klebsiella pneumoniae [16]
0.25 µg/mL: Klebsiella pneumoniae [4] | Klebsiella pneumoniae [14] | Klebsiella pneumoniae [25] | Klebsiella pneumoniae [22] | Klebsiella pneumoniae [23]
1 µg/mL: Klebsiella pneumoniae [5] | Klebsiella pneumoniae [6] | Klebsiella pneumoniae [17]
0.5 µg/mL: Klebsiella pneumoniae [2] | Klebsiella pneumoniae [24]
12 µg/mL: Klebsiella pneumoniae [10] | Klebsiella pneumoniae [13]

C[C@@H](O)[C@H]1C(=O)N2C(C(=O)O)=C(S[C@@H]3CN[C@H](C(=O)N(C)C)C3)[C@H](C)[C@H]12 [MEROPENEM]
0.064 µg/mL: Klebsiella pneumoniae [25] | Klebsiella pneumoniae [15] | Klebsiella pneumoniae [19] | Klebsiella pneumoniae [26]
4 µg/mL: Klebsiella pneumoniae [17]
0.032 µg/mL: Klebsiella pneumoniae [22] | Klebsiella pneumoniae [23]
1.5 µg/mL: Klebsiella pneumoniae [1] | Klebsiella pneumoniae [2] | Klebsiella pneumoniae [12]
0.75 µg/mL: Klebsiella pneumoniae [11]
12 µg/mL: Klebsiella pneumoniae [10] | Klebsiella pneumoniae [13]
1 µg/mL: Klebsiella pneumoniae [3] | Klebsiella pneumoniae [5] | Klebsiella pneumoniae [6] | Klebsiella pneumoniae [7] | Klebsiella pneumoniae [8] | Klebsiella pneumoniae [9] | Klebsiella pneumoniae [24] | Klebsiella pneumoniae [18] | Klebsiella pneumoniae [21]
2 µg/mL: Klebsiella pneumoniae [14]
0.094 µg/mL: Klebsiella pneumoniae [4] | Klebsiella pneumoniae [20]
0.047 µg/mL: Klebsiella pneumoniae [16]

CCN1CCN(C(=O)N[C@@H](C(=O)N[C@@H]2C(=O)N3[C@@H]2SC(C)(C)[C@@H]3C(=O)O)c2ccccc2)C(=O)C1=O [PIPERACILLIN]
32 µg/mL: Klebsiella pneumoniae [39]
8 µg/mL: Klebsiella pneumoniae [50]
3 µg/mL: Klebsiella pneumoniae [49]
12 µg/mL: Klebsiella pneumoniae [30] | Klebsiella pneumoniae [40]
6 µg/mL: Klebsiella pneumoniae [48]
> 256 µg/mL: Klebsiella pneumoniae [27] | Klebsiella pneumoniae [28] | Klebsiella pneumoniae [29] | Klebsiella pneumoniae [31] | Klebsiella pneumoniae [32] | Klebsiella pneumoniae [33] | Klebsiella pneumoniae [34] | Klebsiella pneumoniae [35] | Klebsiella pneumoniae [36] | Klebsiella pneumoniae [37] | Klebsiella pneumoniae [38] | Klebsiella pneumoniae [41] | Klebsiella pneumoniae [43] | Klebsiella pneumoniae [44] | Klebsiella pneumoniae [45] | Klebsiella pneumoniae [46] | Klebsiella pneumoniae [47]
16 µg/mL: Klebsiella pneumoniae [42]
